For data set [1], the system named is HCT116 MTAP−/− cells. The data set can be described thus: Intracellular SAM inhibition assay. The format is cell-based. To be noted: Homo sapiens, HCT-116, 6 h, read-out: IC50, cellular SAM levels. How it is done:
MAT2A inhibition in the cellular environment was monitored by measurement of the abundance of its product SAM in HCT116 MTAP ^−/− cells. HCT116 MTAP ^−/− cells were plated in 96‐well cell culture plates at 50,000 cells per well and allowed to attach overnight at 37°C in 5% CO2. Compounds were added in a dose–response format to generate a 10‐point dose–response curve. Doses were started at a 10 µM top concentration with 1:5 serial dilution. After 6 h of incubation, the medium was removed and cells were extracted with 50% methanol containing 1 M acetic acid for SAM metabolite measurement by UPLC‐MS/MS.
The standard SAM solution was prepared in a surrogate matrix of 50% methanol containing 1 M acetic acid with a concentration range of 3–1000 ng/mL. The quality control sample was prepared in the same surrogate matrix. SAM‐d 3 was used as the internal standard (IS). A Waters UPLC system coupled with a SCIEX Triple Quad™ 6500^+ mass spectrometer […] was used to analyze the samples. Samples were separated on an ACQUITY UPLC® BEH amide column (2.1 × 50 mm, 1.7 µm). The mobile phase consisted of 5% acetonitrile containing 5 mM NH4OAc and 1% (v/v) formic acid (A) and 95% acetonitrile containing 5 mM NH4OAc and 1% (v/v) formic acid (B). […] SAM and SAM‐d 3 were detected with multiple‐reaction monitoring of a mass transition pair at m/z 399.2/250.2 and […], respectively.

In data set [2] the test system is A549. The data set can be described thus: Proliferation assay (CellTiter-Glo). Conditions: Homo sapiens, A549, 144 h; MTAP-deleted, 6-day; read-out: IC50, anti-proliferation A549. The format is cell-based. How it is done:
(§1) HCT116 colon carcinoma parental (WT) cells with MTAP ^−/− isogenic clone were established by KYinno Biotechnology Co., Ltd. (Beijing, China). A549, MIA PaCa‐2, and WI‐38 cell lines were obtained from ATCC. NCI‐H838 was obtained from Cobioer Biosciences. HCT116 WT and KO MTAP cells were cultured in McCoy's 5A media containing 10% FBS. A549 cells were cultured in DMEM media containing 10% FBS. MIA PaCa‐2 cells were cultured in DMEM media containing 10% FBS and 2.5% horse serum. NCI‐H838 cells were cultured in PRMI 1640 media containing 10% FBS. WI‐38 cells were cultured in EMEM media containing 10% FBS.
(§2) Cells were plated in 96‐well cell culture plates and allowed to attach overnight at 37°C in 5% CO2. Compounds diluted in DMSO were added to cells in a dose–response format for 6 days. The final concentration of DMSO was 0.1% in media. Cell proliferation was measured using CellTiter‐Glo Cell Viability Assay (Promega). The IC50 values were calculated using the GraphPad Prism 9. Drug combination effects were analyzed using Combenefit software.[45]
A general note: In ATP-based viability assays light output follows the ATP content of the culture.

The subject of data set [3] is HCT116 MTAP−/− cells. The data set can be described thus: Proliferation assay (CellTiter-Glo). Conditions: Homo sapiens, HCT-116, 144 h; 6-day treatment; read-out: IC50, anti-proliferation HCT116 MTAP−/−. It counts as cell-based. How it is done: as §1, §2
Data set [4] concerns HCT116 WT cells. The data set can be described thus: Proliferation assay (CellTiter-Glo). The format is cell-based. To be noted: Homo sapiens, HCT-116, 144 h; 6-day treatment; read-out: IC50, anti-proliferation HCT116 WT. How it is done:
as §1, §2

For data set [5], the system named is MIA PaCa-2. The data set is described as follows: Proliferation assay (CellTiter-Glo). Conditions: Homo sapiens, MIA PaCa-2, 144 h; MTAP-deleted, 6-day; read-out: IC50, anti-proliferation MIA PaCa-2. It counts as cell-based. As for the experimental part: as §1, §2
The subject of data set [6] is NCI-H838. The data set is described as follows: Proliferation assay (CellTiter-Glo). It counts as cell-based. To be noted: Homo sapiens, NCI-H838, 144 h; MTAP-deleted, 6-day; read-out: IC50, anti-proliferation NCI-H838. As for the experimental part:
as §1, §2

Data set [7] relates to WI-38 (human fetal lung fibroblast cells). The data set is described as follows: Proliferation assay (CellTiter-Glo). To be noted: Homo sapiens, WI-38, MTAP WT; read-out: IC50, anti-proliferation WI-38. It counts as cell-based. As for the experimental part:
as §1, §2

Data set [8] concerns HCT116 MTAP−/− subcutaneous xenograft. The data set can be described thus: Xenograft efficacy study, monotherapy. It counts as in vivo, mice. Conditions: AG-270 200 mg/kg oral. How it is done:
An efficacy study in an HCT116 MTAP ^−/− subcutaneous xenograft mouse model was performed to evaluate the antitumor effect of SCR‐7952, with once daily (q.d.) oral dosing of 0.25, 0.5, 1.0, or 3.0 mg/kg, respectively.
Nu/Nu female mice (6–12 weeks old; Beijing Vital River Laboratory Animal Technology Co., Ltd.) were used for in vivo xenograft studies. All experimental procedures involving animals and their care were in accordance with the State Council Regulations for Laboratory Animal Management (Enacted in 1988) and approved by the Institutional Animal Care and Use Committee of Jiangsu Simcere Pharmaceutical Co., Ltd. (IACUC; Approval No. AP‐056).
(§3) Subcutaneous injections of HCT116 MTAP ^−/− cells were performed (5 × 10^6 cells in 100 µL) into Nu/Nu female mice. Mice were observed daily for the development of tumors. Six days after tumor implantation, mice were randomly distributed into different groups. SCR‐7952, AG‐270, JNJ‐64619178, or vehicle (water with 5% N‐methylpyrrolidone and 10% solutol HS‐15) were daily administrated by oral gavage. Tumor volumes and body weights were recorded three times per week. Tumor volumes were measured in two dimensions using a caliper, and the volume was expressed in mm^3 using the formula: V = (L × W × W)/2, where V is tumor volume, L is tumor length (the longest tumor dimension), and W is tumor width (perpendicular to L). The tumor growth inhibition rate (TGI%) of each dosing group was calculated according to the following formula: %TGI = (1 − (V t(treatment group) − V 0(treatment group))/(V t(vehicle group) − V 0(vehicle group))) × 100%, where V t is average tumor volume of a dosing group on a specific day, V 0 is average tumor volume of a dosing group on the initial day. At the end of the study, plasma and tumor tissues were collected and stored at −80°C for further measurement.

Data set [9] can be described thus: Plasma bilirubin in mice after oral treatment. The format is in vivo. To be noted: AG-270 200 mg/kg, 2 h after final dose.
Data set [10] is described as follows: Plasma pharmacokinetics after multiple administration in xenograft mice. The format is in vivo. Conditions: AG-270 200 mg/kg.
Data set [11] has as its system UGT1A1. Further details: method as in PMID 16765731. Conditions: off-target activity of AG-270; cited from earlier work.
Data set [12] has as its target T1, MAT2A (Homo sapiens, UniProt P31153).
T1 construct: purchased Pharmaron 210405‐HWR‐20210429
More on the design: method as in earlier work. Conditions: read-out: IC50, inhibition of MAT2A activity; cited from earlier work.

Data set [13] has as its system MTAP−/− cancer cells. More on the design: method as in earlier work. To be noted: read-out: IC50, antiproliferation on MTAP−/− cancer cells; cited from earlier work.
Data set [14] relates to MTAP-deleted squamous NSCLC. Further details: method as in NCT04794699. To be noted: 3/4 patients, up to 50% circulating tumor DNA decrease; ref NCT04794699; cited from earlier work.
Data set [15] deals with SDMA. The data set is described as follows: Immunoblot of SDMA (PRMT5-dependent mark). The format is cell-based. Conditions: 96 h, HCT116 MTAP−/− cells. In general terms: Immunoblotting shows a protein as a band on a membrane.
Data set [16] relates to FANCA. The data set can be described thus: RT-PCR of FANCA and DI-containing transcripts. It counts as cell-based. Conditions: 72 h.
Data set [17] concerns HCT116 MTAP−/− xenograft. The data set can be described thus: Xenograft combination treatment study. The format is in vivo, mice. Conditions: JNJ-64619178 1.0 mg/kg alone. How it is done:
as §3

The test system of data set [18] is SDMA. The data set can be described thus: Tumor SDMA levels in combination xenograft study. It counts as in vivo, mice. To be noted: JNJ-64619178 1.0 mg/kg alone.
The target in data set [19] is T1, MAT2A. Further details: method as in PMID 28553945. Conditions: chemical assay; cited from earlier work.
The subject of data set [20] is Huh-7 cells. Further details: method as in PMID 28553945. Conditions: read-out: IC50, antiproliferative effect on Huh-7 cells; cited from earlier work.
For data set [21], the system named is mixed-lineage leukemia-rearranged (MLLr) leukemia. Further details: method as in PMID 32456310. To be noted: read-out: IC50, antiproliferation in MLLr leukemia; cited from earlier work.

Molecules are shown by their SMILES. Several values for one entry are separate records, joined by “and”; a condition that tells them apart may be missing. Equal entries are not always repeated. Where two headings read alike, the source gives them in different places.

By TGI is commonly meant the reduction of tumour growth relative to the control group.

T1 sequence (P31153 whole entry): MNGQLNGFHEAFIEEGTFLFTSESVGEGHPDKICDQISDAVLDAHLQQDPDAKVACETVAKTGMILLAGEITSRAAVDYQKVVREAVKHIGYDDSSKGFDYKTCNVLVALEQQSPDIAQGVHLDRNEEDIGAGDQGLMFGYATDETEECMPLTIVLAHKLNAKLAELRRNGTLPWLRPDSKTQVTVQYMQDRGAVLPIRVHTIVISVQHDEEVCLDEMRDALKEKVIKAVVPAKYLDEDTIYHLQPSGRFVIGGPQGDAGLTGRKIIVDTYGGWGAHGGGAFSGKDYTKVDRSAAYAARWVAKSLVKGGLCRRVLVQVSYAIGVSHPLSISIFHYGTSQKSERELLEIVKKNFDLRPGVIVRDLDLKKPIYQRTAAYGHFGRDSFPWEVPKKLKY

Turning to `COc1ccc(-c2c(Nc3ccccn3)[nH]c3c(C4=CCCCC4)c(-c4ccccc4)nn3c2=O)cc1` [AG‐270, reference compound], the IC50 in [1] amounted to 5.8 nM; in data set [2], 646 nM; in data set [3], 300 nM; in [4] it was 1220 nM; in [5], 935 nM; in [6], 93.9 nM. Also, the IC50 in [7] was 1410 nM; in [11] it was 1100 nM. The molecule further yielded a TGI in data set [8] of 52.0%. In addition, in [9], the “effect on plasma total, direct and unconjugated bilirubin” value is “remarkably increased”. In addition, the AUC0-24h free drug in data set [10] (calculated) is 3.829 µg·h/mL. For the same molecule, the AUC(0-t) in data set [10] (Nu/Nu, mouse, oral, plasma, HCT116 MTAP−/− xenograft mice, read-out: AUC0-24h total) stood at 383 µg·h/mL.
Turning to `Nc1nc(=O)n(-c2ccccc2Cl)c2nc(C(F)(F)F)ccc12` [IDE397], the IC50 is roughly 10 nM in [12] and roughly 20 nM in data set [13]. Also, the molecular responses in data set [14] is 75%.
Turning to `Nc1nc2cc(CC[C@H]3C[C@@H](n4ccc5c(N)ncnc54)[C@H](O)[C@@H]3O)ccc2cc1Br` [JNJ‐64619178, reference compound], the “SDMA level (immunoblot)” value in data set [15] is given as “reduction of SDMA”. In data set [16], the “expression of FANCA DI-containing transcripts” value is on record as “increase of FANCA DI‐containing transcripts”. In addition, in data set [17], the TGI stood at 54.0%. The “tumor SDMA levels” value in data set [18] is on record as “remarkable reduction”.
For the molecule `CN(C)CCc1nnc2cc(-c3ccccc3)c3cc(Cl)ccc3n12` [PF‐9366], the IC50 in data set [19] is 420 nM; in [20], ~10000 nM and 10000 nM; in data set [21] it was roughly 10000 nM.
